Each structure is given as a SMILES string.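 The compound was tested at five concentrations on cells cultured in 96-well plates, with a 48-hour exposure period. GI50: concentration for 50% inhibition of growth. TGI: concentration producing complete growth inhibition.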

The values below come from PubChem BioAssay (NCI).

Some test systems named below: SF-295 CNS; SF-268 CNS; OVCAR-3 ovarian; 786-0 renal; MOLT-4 leukemia; ACHN renal; HL-60(TB) leukemia; HOP-92 NSCLC; OVCAR-8 ovarian.
Holding throughout (experiment): NCI tumour cell line growth inhibition, 48 h

Consider `CCN(CC)/[N+]([O-])=N/OCC(C)O` (centres undefined), for which the TGI with SF-295 CNS, in the assay on SF-268 CNS, in the assay on OVCAR-3 ovarian, with 786-0 renal, with MOLT-4 leukemia and in the assay with ACHN renal was greater than 100 µM throughout. Also, the TGI with HL-60(TB) leukemia, with HOP-92 NSCLC and in the assay on OVCAR-8 ovarian was greater than 100 µM in each case.

On to `Cn1cc2ccccc2c1-c1nc(F)nc(Nc2ccc(N)cc2)n1`, for which the TGI with SF-295 CNS amounted to 50.4 µM; in the assay with SF-268 CNS, 56.3 µM; in the assay on OVCAR-3 ovarian it was 48.3 µM; with 786-0 renal, 64 µM; in the assay on MOLT-4 leukemia it was 65.5 µM; with ACHN renal, 68 µM. Also, the TGI in the assay with HL-60(TB) leukemia is greater than 100 µM; in the assay with HOP-92 NSCLC it was 55.6 µM; with OVCAR-8 ovarian, 46.7 µM.

Take `COc1cc(OC)cc(C(=O)Cc2c(C(=O)c3ccccc3)c3ccccc3n2C(=O)c2ccccc2)c1`: the TGI with SF-295 CNS is 94.9 µM; in the assay with SF-268 CNS, greater than 100 µM; in the assay with OVCAR-3 ovarian, greater than 100 µM; with 786-0 renal it was greater than 100 µM; in the assay with MOLT-4 leukemia, greater than 100 µM; with ACHN renal, greater than 100 µM. The TGI in the assay with HL-60(TB) leukemia is greater than 100 µM; in the assay on HOP-92 NSCLC, 31.3 µM; with OVCAR-8 ovarian, greater than 100 µM.

`CN=C(N)NC`: the TGI in the assay with SF-295 CNS, with SF-268 CNS, with OVCAR-3 ovarian, in the assay on 786-0 renal, in the assay with MOLT-4 leukemia and in the assay on ACHN renal was greater than 100 µM each time. Further, the TGI in the assay on HL-60(TB) leukemia, with HOP-92 NSCLC and in the assay with OVCAR-8 ovarian was greater than 100 µM each time.

With `CC(=O)OC1(C#N)CC2OC1C1N=NN(C(=O)OC(C)(C)C)C21` (centres undefined), the TGI in the assay on SF-295 CNS is greater than 100 µM; in the assay with SF-268 CNS, greater than 100 µM; in the assay on OVCAR-3 ovarian, greater than 80.6 µM; in the assay with 786-0 renal it was greater than 100 µM; in the assay on MOLT-4 leukemia, greater than 100 µM; in the assay with ACHN renal, greater than 100 µM. Further, the TGI is 79.4 µM in the assay with HL-60(TB) leukemia, greater than 31.6 µM in the assay with HOP-92 NSCLC and greater than 100 µM in the assay with OVCAR-8 ovarian.

`CC(C)c1cc(C(=O)[O-])c(O)c(C(C)C)c1.CC(C)c1cc(C(=O)[O-])c(O)c(C(C)C)c1.CC(C)c1cc(C(=O)[O-])c(O)c(C(C)C)c1.CC(C)c1cc(C(=O)[O-])c(O)c(C(C)C)c1.CC(C)c1cc(C(=O)[O-])c(O)c(C(C)C)c1.CC(C)c1cc(C(=O)[O-])c(O)c(C(C)C)c1.[Cu+2].[Mn+2].[Mn+2]`: the GI50 was 18.1 µM with SF-295 CNS; 35.5 µM with SF-268 CNS; 2.87 µM with OVCAR-3 ovarian; 20.3 µM in the assay with 786-0 renal; 20.3 µM with MOLT-4 leukemia; 31.7 µM in the assay on ACHN renal. Moreover, the GI50 was 17.7 µM in the assay on HL-60(TB) leukemia, 19.9 µM in the assay on HOP-92 NSCLC and 29.3 µM in the assay with OVCAR-8 ovarian. The TGI is 49.5 µM with SF-295 CNS; 82.7 µM in the assay with SF-268 CNS; 10.4 µM in the assay on OVCAR-3 ovarian; 46.9 µM with 786-0 renal; 66.1 µM in the assay on MOLT-4 leukemia; greater than 100 µM with ACHN renal. Besides, the TGI in the assay with HL-60(TB) leukemia stood at 53.9 µM; in the assay on HOP-92 NSCLC, 54 µM; with OVCAR-8 ovarian it was 81 µM.

With `CC(=O)Oc1cc(Cl)c(OC(C)=O)c2c(OC(C)=O)c(C)c(O[Si](C)(C)C(C)(C)C)cc12`, the TGI is 23 µM with SF-295 CNS; 26.2 µM with SF-268 CNS; 29.3 µM in the assay on OVCAR-3 ovarian; 28.1 µM in the assay with 786-0 renal; 24.8 µM in the assay on MOLT-4 leukemia; 8.89 µM with HL-60(TB) leukemia. In addition, the TGI was determined as 20 µM in the assay on HOP-92 NSCLC and 7.56 µM in the assay with OVCAR-8 ovarian.

Regarding `COC(=O)c1ccc(/C=C/S(=O)(=O)c2ccccc2)cc1`, the TGI with SF-295 CNS, in the assay on SF-268 CNS, in the assay with OVCAR-3 ovarian, in the assay with 786-0 renal, in the assay on MOLT-4 leukemia and in the assay with ACHN renal was greater than 100 µM each time. The TGI in the assay with HL-60(TB) leukemia, in the assay with HOP-92 NSCLC and in the assay on OVCAR-8 ovarian was greater than 100 µM each time.

Turning to `COC(=O)C1=C(O)c2cc3c(cc2[C@H](c2cc(OC)c(OC)c(OC)c2)C1)OCO3`, the TGI was greater than 100 µM in the assay with SF-295 CNS; greater than 100 µM in the assay with SF-268 CNS; 55.7 µM in the assay on OVCAR-3 ovarian; greater than 100 µM in the assay with 786-0 renal; 89.6 µM in the assay on MOLT-4 leukemia; greater than 100 µM in the assay on ACHN renal. Also, the results for the TGI with HL-60(TB) leukemia, in the assay with HOP-92 NSCLC and with OVCAR-8 ovarian were 67.6 µM, greater than 100 µM and greater than 100 µM, respectively.

Consider `COc1ccc(/C=C2\CCc3ccccc3C2=O)cc1OC`, for which the TGI is 95.9 µM in the assay with SF-295 CNS; 62.6 µM in the assay on SF-268 CNS; greater than 100 µM in the assay on OVCAR-3 ovarian; greater than 100 µM in the assay on 786-0 renal; 71.3 µM in the assay on MOLT-4 leukemia; greater than 100 µM in the assay with ACHN renal. Moreover, the TGI in the assay on OVCAR-8 ovarian was greater than 100 µM.

Consider `C/C=C(\C)C(=O)N1c2ccccc2CC1c1c(C)[nH]c2ccccc12` (centres undefined), for which the TGI in the assay with SF-295 CNS, with OVCAR-3 ovarian, with 786-0 renal, in the assay on MOLT-4 leukemia, with ACHN renal and with HL-60(TB) leukemia was greater than 100 µM throughout. Further, the results for the TGI with HOP-92 NSCLC and in the assay on OVCAR-8 ovarian were 99.4 µM and greater than 100 µM, respectively.

Take `N/C(=N\N=C\c1ccc(O)c(O)c1)NO`: the TGI in the assay on SF-295 CNS, with SF-268 CNS, with OVCAR-3 ovarian, in the assay on 786-0 renal, in the assay on MOLT-4 leukemia and in the assay with ACHN renal was greater than 100 µM throughout. In addition, the TGI with HL-60(TB) leukemia, in the assay on HOP-92 NSCLC and in the assay on OVCAR-8 ovarian was greater than 100 µM each time.

Consider `C/C(=N\NS(=O)(=O)c1c(C)cc(C)cc1C)c1ccc[n+]([O-])n1`, for which the TGI was greater than 100 µM with SF-295 CNS; 53.7 µM in the assay with SF-268 CNS; 25.3 µM in the assay with OVCAR-3 ovarian; 36 µM in the assay on 786-0 renal; 37 µM in the assay on MOLT-4 leukemia; 29.9 µM with ACHN renal. Moreover, the TGI is 25.1 µM in the assay with HL-60(TB) leukemia, 22.8 µM with HOP-92 NSCLC and 79 µM with OVCAR-8 ovarian.

`CCOc1ncnc2ccc(Cl)c(I)c12`: the TGI in the assay on SF-295 CNS, with SF-268 CNS, with OVCAR-3 ovarian, with 786-0 renal, in the assay on ACHN renal and with HL-60(TB) leukemia was greater than 100 µM each time. Moreover, in the assay on OVCAR-8 ovarian, the TGI was greater than 100 µM.
